Laboratory results as given in patent publication EP0403398A1, “New thioformamide derivatives” (RHONE-POULENC SANTE, priority 1989, dated 1990).

system: isolated rat aorta; assay: Test A: activity against contractions induced by low K+ concentrations in the isolated rat aorta; settings: concentration reducing the 20mM K⁺-induced contraction by 90%; rat thoracic aorta strips denuded of endothelium, Krebs solution, cumulative concentrations; read-out: Activity Test A EC₉₀
Protocol: The test methods used were adapted from those described by Winslow et al [Eur.J.Pharmacol., 131, 219-228 (1986)] and Karaki [J.Pharmacol. Methods, 18, 1-21 (1987)] for differentiating vaso-relaxant activity. Test A : Activity against contractions induced by low K⁺ concentrations in the isolated rat aorta Thoracic aorta was removed from rats and transverse strips, denuded of endothelium, were suspended in a bath containing Krebs solution. The tension was recorded and a contraction induced by addition of 20mM K⁺ (potassium ion) to the bathing solution. The test compound was added to the bath as a solution in increasing cumulative concentration. The concentration in the bathing solution of the test compound which reduced the K⁺-induced contraction by 90% was determined and expressed in µM as the effective concentration (EC₉₀), given in Table I. Table I

EC90 [nM] | Structure (SMILES)
300 | CNC(=S)[C@]1(c2cccnc2)CCCC[C@H]1NOC (racemic) [Compound AB, (±)-trans-2-methoxyamino-N-methyl-1-(3-pyridyl)cyclohexanecarbothioamide]
3 | CNC(=S)[C@]1(c2cccnc2)CCCC[C@H]1NOCc1ccccc1 (racemic) [AA, (±)-trans-2-benzyloxyamino-N-methyl-1-(3-pyridyl)cyclohexanecarbothioamide]
3 | CNC(=S)[C@]1(c2cccnc2)CCCC[C@H]1N[C@H](C)c1cccc2ccccc12 [BE, (2R,1S)-2-[(R)-1-(1-naphthyl)ethylamino] 1-(3-pyridyl)cyclohexane-N-methylcarbothioamide]
0.03 | CNC(=S)[C@]1(c2cccnc2)CCCC[C@H]1N[C@H](C)c1ccccc1 [BD, (2R,1S)-2-[(R)-1-phenylethylamino]-1-(3-pyridyl)cyclohexane-N-methylcarbothioamide]
